We go through 22 molecules from patent US9540361B2, “N-substituted azetidine derivatives” (Merck Sharp & Dohme B.V., priority 2010, dated 2017).

Where a name gives a salt, the structure may show the parent alone.

One experiment has as its target T1, estrogen receptor alpha (Homo sapiens, UniProt P03372).
T1 construct: endogenous in cells; host or cells: T47D human breast cancer cells (ATCC)
T1 sequence (P03372 1-595): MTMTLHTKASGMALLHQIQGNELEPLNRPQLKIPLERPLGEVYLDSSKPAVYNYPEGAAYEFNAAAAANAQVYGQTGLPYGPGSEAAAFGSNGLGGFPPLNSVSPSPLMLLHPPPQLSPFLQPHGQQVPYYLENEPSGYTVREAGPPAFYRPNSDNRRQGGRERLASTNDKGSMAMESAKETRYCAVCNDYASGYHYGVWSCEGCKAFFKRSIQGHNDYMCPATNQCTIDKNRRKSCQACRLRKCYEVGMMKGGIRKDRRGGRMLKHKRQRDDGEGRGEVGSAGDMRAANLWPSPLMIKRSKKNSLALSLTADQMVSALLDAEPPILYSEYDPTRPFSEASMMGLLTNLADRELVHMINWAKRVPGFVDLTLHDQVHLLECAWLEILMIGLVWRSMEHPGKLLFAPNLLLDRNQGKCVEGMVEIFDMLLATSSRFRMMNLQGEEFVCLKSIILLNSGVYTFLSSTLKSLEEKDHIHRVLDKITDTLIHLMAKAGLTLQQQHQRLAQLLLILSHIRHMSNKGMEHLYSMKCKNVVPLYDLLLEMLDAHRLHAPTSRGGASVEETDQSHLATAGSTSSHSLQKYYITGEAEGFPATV
Description: ERα downregulation assay in T47D breast cancer cells (ERα ELISA). In kind it is cell-based. The conditions noted are these: downregulation of ERα relative to fulvestrant (100%), 1E-5 M, 24 hours, negative = upregulation. The source says:
More specifically, this in vitro bioassay is used to determine the efficacy (fraction of maximal response) of the compound by comparing the data for this compound with those of the reference compound ICI 182,780 (fulvestrant) in the same test (downregulation of fulvestrant is 100% by definition).
A more detailed description of the method used is as follows.
Cell culture. The human epithelial breast cancer cell line T47D (origin: ATCC) was routinely maintained in a 1:1 mixture of Ham's F12 medium and Dulbecco's Modified Eagle Medium (Gibco) enriched with 5% fetal calf serum (Hyclone), 10 mM HEPES pH 7.5 and 100 μg/ml penicillin-streptomycin solution. Cells were grown in 80 cm2 culture flasks (Nunc, Roskilde, Denmark) and kept in an atmosphere of 5% CO2-95% air at 37 degrees Celsius. Cells were subcultured when they reached about 80-90% confluence, resulting in one passage a week. Subculturing includes detaching the cells using Cell Dissociation Buffer [Sigma] and subsequent inoculation at 1:5 or 1:10 in a new Roux flask (175 cc) and\or plating out in Nunclon™ Surface 96 wells microplates. The culture medium needs to be refreshed on day three or four of the incubation, if applicable.
Determination of ERα protein levels: T47D cells in the microplates are incubated with 1E-5 M test compound for 24 hours. The supernatant in all wells is carefully aspirated. Cells are lysed on the microplate and cell lysates are probed for ERα content using an ERα ELISA assay kit (Active Motif).
(In general: In an ELISA, binding on a coated surface is turned into a signal by an enzyme label.)

The target of experiment [1] is T2, human estrogen receptor α (hERα) (Homo sapiens, UniProt P03372).
T2 sequence (P03372 1-595): T1 sequence (P03372 1-595)
Description: antagonistic activity in CHO cells co-transfected with hERα, rat oxytocin promoter and luciferase reporter gene. In kind it is cell-based. As to conditions: antagonism of 17β-estradiol-induced transactivation, CHO-hERα-RO-LUC; read-out: ERα pIC50 (converted). As for the experimental part:
The antagonistic activity of compounds on the estrogen receptors was determined in an in vitro bioassay with recombinant Chinese Hamster Ovary (CHO) cells stably co-transfected with the human estrogen receptor α (hERα), the rat oxytocin promoter (RO) and the luciferase reporter gene (LUC). […] The antagonistic efficacy, i.e. the amount of maximal inhibition of the 17β-estradiol activated receptor by a compound, is expressed as fraction relative to the maximal inhibition as induced by the standard anti-estrogen ICI 164,384 (efficacy test compound=(maximal inhibition test compound/maximal inhibition ICI 164,384)). A more detailed description of the methodology can be found in De Gooyer et al., Steroids, 68 (2003) 21-30.
For orientation: A reporter such as luciferase makes a cellular process visible.

Regarding `CCCN1CC(Oc2ccc(C(=O)c3c(-c4ccccc4C)noc3-c3ccc(O)cc3)cc2)C1.Cl` [compound 7aj, (5-(4-hydroxyphenyl)-3-o-tolylisoxazol-4-yl)(4-(1-propylazetidin-3-yloxy)-phenyl)methanone hydrochloride], the “DR (%)” value at estrogen receptor alpha was determined as 100%. The IC50 in experiment [1] is 3.16 nM.
Consider `C[C@]12C[C@H](c3ccc(OC4CN(CC5CC5)C4)cc3)C3c4ccc(O)cc4CC[C@H]3[C@@H]1CC[C@@H]2O` (stereo partly drawn) [compound 6t, (8S,11S,13S,14S,17S)-11-(4-(1-(cyclopropylmethyl)azetidin-3-yloxy)phenyl)-13-methyl-7,8,9,10,11,12,13,14,15,16,17-decahydro-6H-cyclopenta[a]phenanthrene-3,17-diol], for which the IC50 in experiment [1] is 3.16 nM.
In the case of `O=C(O)C(F)(F)F.O=C(c1ccc(OC2CN(C3CC3)C2)cc1)c1c(-c2ccc(O)cc2)sc2cc(O)ccc12` [compound 7i, (4-(1-cyclopropylazetidin-3-yloxy)phenyl)(6-hydroxy-2-(4-hydroxyphenyl)-benzo[b]thiophen-3-yl)methanone 2,2,2-trifluoroacetate], on estrogen receptor alpha, the “DR (%)” value was 66%. Further, in experiment [1], the IC50 was 2.51 nM.
Regarding `CN1CC(Oc2ccc(C(=O)c3c(-c4ccc(O)cc4)sc4cc(O)ccc34)cc2)C1.Cl` [compound 7d, (6-hydroxy-2-(4-hydroxyphenyl)benzo[b]thiophen-3-yl)(4-(1-methylazetidin-3-yloxy)phenyl)methanone hydrochloride], the “DR (%)” value at estrogen receptor alpha worked out at 48%. Also, the IC50 in experiment [1] was 2 nM.
For the molecule `CCCN1CC(Oc2ccc(C(=O)c3c(-c4ncccc4C)noc3-c3ccc(O)cc3)cc2)C1.Cl` [compound 7am, (5-(4-hydroxyphenyl)-3-(3-methylpyridin-2-yl)isoxazol-4-yl)(4-(1-propylazetidin-3-yloxy)phenyl)methanone hydrochloride], on estrogen receptor alpha, the “DR (%)” value is recorded as 93%. Besides, in experiment [1], the IC50 is 25.1 nM.
Regarding `CCCN1CC(Oc2ccc(C(=O)c3c(-c4ccccc4Cl)noc3-c3cccc4[nH]ncc34)cc2)C1.O=C(O)C(F)(F)F` [compound 7as, (3-(2-chlorophenyl)-5-(1H-indazol-4-yl)isoxazol-4-yl)(4-(1-propylazetidin-3-yl-oxy)phenyl)methanone 2,2,2-trifluoroacetate], the “DR (%)” value at estrogen receptor alpha was 55%. Further, the IC50 in experiment [1] is 39.8 nM.
In the case of `CCCN1CC(Oc2ccc(C(=O)c3c(-c4cccn4C)noc3-c3ccc(O)cc3)cc2)C1.Cl` [7al, (5-(4-hydroxyphenyl)-3-(1-methyl-1H-pyrrol-2-yl)isoxazol-4-yl)(4-(1-propylazetidin-3-yloxy)phenyl)methanone hydrochloride], on estrogen receptor alpha, the “DR (%)” value is 100%. In experiment [1], the IC50 is 7.94 nM.
Regarding `CCCN1CC(Oc2ccc(C(=O)c3c(-c4ccc(O)cc4C)sc4cc(O)ccc34)cc2)C1.Cl` [compound 7q, (6-hydroxy-2-(4-hydroxy-2-methylphenyl)benzo[b]thiophen-3-yl)(4-(1-propylazetidin-3-yloxy)phenyl)methanone hydrochloride], the “DR (%)” value on estrogen receptor alpha is given as 64%. For the same molecule, the IC50 in experiment [1] was 1.26 nM.
In the same order, the values of `CCCN1CC(Oc2ccc(C(=O)c3c(-c4ccccc4)noc3-c3ccc(O)cc3)cc2)C1.Cl` [compound 7ai, (5-(4-hydroxyphenyl)-3-phenylisoxazol-4-yl)(4-(1-propylazetidin-3-yloxy)-phenyl)methanone hydrochloride] are 96% and 7.94 nM.
For `Cl.O=C(c1ccc(OC2CN(CC3CCOC3)C2)cc1)c1c(-c2ccc(O)cc2)sc2cc(O)ccc12` (stereo not drawn) [compound 7o, (6-hydroxy-2-(4-hydroxyphenyl)benzo[b]thiophen-3-yl)(4-(1-((tetrahydrofuran-3-yl)methyl)azetidin-3-yloxy)phenyl)methanone hydrochloride], the “DR (%)” value on estrogen receptor alpha is listed as 73%. Moreover, the IC50 in experiment [1] was 5.01 nM.
Take `CCCN1CC(Oc2ccc(-c3c(-c4ccccc4Cl)noc3-c3ccc(O)cc3C)cc2)C1` [compound 6k, 4-(3-(2-chlorophenyl)-4-(4-(1-propylazetidin-3-yloxy)phenyl)isoxazol-5-yl)-3-methylphenol 2,2,2-trifluoroacetate]: the IC50 in experiment [1] is 0.501 nM.
`Cl.O=C(c1ccc(OC2CN(CC3CCC3)C2)cc1)c1c(-c2ccc(O)cc2)sc2cc(O)ccc12` [compound 7n, (4-(1-(cyclobutylmethyl)azetidin-3-yloxy)phenyl)(6-hydroxy-2-(4-hydroxyphenyl)benzo[b]thiophen-3-yl)methanone hydrochloride]: the “DR (%)” value at estrogen receptor alpha came to 77%. Also, the IC50 in experiment [1] was 1.26 nM.
As for `CCCN1CC(Oc2ccc(-c3c(-c4ccccc4Cl)noc3-c3ccc(O)c(C)c3)cc2)C1` [compound 6l, 4-(3-(2-chlorophenyl)-4-(4-(1-propylazetidin-3-yloxy)phenyl)isoxazol-5-yl)-2-methylphenol 2,2,2-trifluoroacetate], the IC50 in experiment [1] was 0.631 nM.
Turning to `CCCN1CC(Oc2ccc(C(=O)c3c(-c4ccc(O)cc4)noc3-c3ccccc3Cl)cc2)C1` [compound 6n, (5-(2-chlorophenyl)-3-(4-hydroxyphenyl)isoxazol-4-yl)(4-(1-propylazetidin-3-yloxy)phenyl)methanone], the “DR (%)” value on estrogen receptor alpha is given as 62%. In addition, the IC50 in experiment [1] was 3.98 nM.
As for `CC(C)N1CC(Oc2ccc(C(=O)c3c(-c4ccc(O)cc4)sc4cc(O)ccc34)cc2)C1` [compound 6e, (6-hydroxy-2-(4-hydroxyphenyl)benzo[b]thiophen-3-yl)(4-(1-isopropylazetidin-3-yloxy)phenyl)methanone hydrochloride], the IC50 in experiment [1] is 1.58 nM.
For `Oc1ccc(-c2onc(-c3ccccc3Cl)c2-c2ccc(OC3CNC3)cc2)cc1` [compound 6f, 4-(4-(4-(azetidin-3-yloxy)phenyl)-3-(2-chlorophenyl)isoxazol-5-yl)phenol], in experiment [1], the IC50 is 15.8 nM.
With `CCCN1CC(Oc2ccc(Cc3c(-c4ccccc4)c(=O)oc4cc(O)ccc34)cc2)C1` [compound 6r, 7-hydroxy-3-phenyl-4-(4-(1-propylazetidin-3-yloxy)benzyl)-2H-chromen-2-one 2,2,2-trifluoroacetate], the IC50 in experiment [1] was 1.58 nM.
As for `CCCCN1CC(Oc2ccc(-c3c(-c4ccccc4Cl)noc3-c3ccc(O)cc3)cc2)C1` [compound 6h, 4-(4-(4-(1-butylazetidin-3-yloxy)phenyl)-3-(2-chlorophenyl)isoxazol-5-yl)-phenol hydrochloride], the IC50 in experiment [1] is 0.631 nM.
`CN1CC(Oc2ccc(-c3c(-c4ccc(O)cc4)sc4cc(O)ccc34)cc2)C1` [compound 6a, 2-(4-hydroxyphenyl)-3-(4-(1-methylazetidin-3-yloxy)phenyl)benzo[b]thiophen-6-ol 2,2,2-trifluoroacetate]: the IC50 in experiment [1] was 0.794 nM.
As for `CCC(C)N1CC(Oc2ccc(-c3c(-c4ccccc4Cl)noc3-c3ccc(O)cc3)cc2)C1` (stereo not drawn) [compound 6i, 4-(4-(4-(1-sec-butylazetidin-3-yloxy)phenyl)-3-(2-chlorophenyl)isoxazol-5-yl)-phenol hydrochloride], in experiment [1], the IC50 was 1 nM.
Still for that read-out and setting: as for `CCCN1CC(Oc2ccc([C@H]3C[C@]4(C)[C@@H](O)CC[C@H]4[C@@H]4CCc5cc(O)ccc5C34)cc2)C1` (stereo partly drawn) [compound 6s, (8S,11S,13S,14S,17S)-13-methyl-11-(4-(1-propylazetidin-3-yloxy)phenyl)-7,-8,9,10,11,12,13,14,15,16,17-decahydro-6H-cyclopenta[a]phenanthrene-3,17-diol], the figure is 2.51 nM; as for `CCCN1CC(Oc2ccc(-c3c(-c4ccccc4C)noc3-c3ccc(O)cc3)cc2)C1` [compound 6j, 4-(4-(4-(1-propylazetidin-3-yloxy)phenyl)-3-o-tolylisoxazol-5-yl)phenol 2,2,2-trifluoroacetate], 0.398 nM.
